Measured values: patent US20160017011A1, “PHF20 AND JMJD3 COMPOSITIONS AND METHODS OF USE IN CANCER IMMUNOTHERAPY” (priority 2013, published 2016)
Residues, ends and D or L forms follow the SMILES beside them. *: point of attachment. Cbz = O=C(OCc1ccccc1)*

Experiments:
[1] = tested on: PHF20 protein; experiment: PHF20 protein amounts after MG132 treatment; type: cell-based; conditions: even when both Trim26 and Jmjd3 were overexpressed
Source text: (§1) Jmjd3-Trim26 is responsible for the enhanced reprogramming efficiency observed in Jmjd3-1-MEFs or in Dox-treated Tet-O-PHF20 MEFs.

[2] = tested on: iPSC colony formation; experiment: iPSC colony formation and cell death after MG132 treatment; type: cell-based
Method: Mouse iPSCs were generated as previously described (Takahashi et al., 2007a) with some minor modifications. Briefly, MEFs (1-8×10^4/well) were seeded on irradiated-MEFs in a 6-well plate. On the next day, the cells were transduced with an equal amount of lentiviruses expressing the four factors and rtTA. The following day, transduced-MEFs were cultured with mESC medium containing 2 μg/mL Dox for 14 days. Tet-O-4F MEFs were used to generate iPSCs by treating MEFs with Dox in mESC medium. The efficiency of iPSC formation as calculated based on the number of AP positive iPSC colonies and the initial cell number of seeded MEFs. Human iPSCs were generated as previously described (Park et al., 2008).
as §1

[3] = tested on: PHF20938-946-specific CD8+ T cells; experiment: Recognition of peptide-pulsed T2 cells by PHF20-specific T cells (IFN-γ release); type: cell-based, human; conditions: T cells generated from PBMCs of HLA-A2+ healthy donors; FIG. 9A
Method: (FIG. 9A) PHF20938-946-specific CD8^+ T cells were generated from normal donor PBMCs after in vitro stimulation with PHF20 peptides, and used to determine the recognition of T2 cells loaded with different concentrations of PHF20938-946, peptide, or a control peptide as a negative control. (FIG. 9B) PHF20938-946-specific T cells were cultured alone in medium or co-incubated with HLA-A2^+ PHF20^+ (MCF-7) or HLA-A2^− PHF20^+ (DU4475, MDA-MB-361) breast cancer cell lines. A normal breast epithelial cell line MCF-10A is included as a control. T cell activity was determined by measuring cytokine (IFN-γ) release. (FIG. 9C) PHF20938-946-specific CD8^+ T cells were tested for cytotoxicity against MCF-7 by the LDH assay. HLA-A2 negative PHF20^+ PC3 cells were used as a negative control in the LDH assay. Data are plotted as means t SD. Results are representative of three independent experiments. *P<0.05, **P<0.01, ***P<0.001 versus controls.
Furthermore, PHF20-specific T cells could lyse HLA-A2^+ and PHF20^+ MCF-7 breast cancer cells (FIG. 9C).

| Molecule | amounts of PHF20 protein [1] | cell death ([2]; MG132 treatment during reprogramming) | iPSC colony formation ([2]; after MG132 treatment) | recognition of peptide-pulsed cells by PHF20-specific T cells [3] |
| --- | --- | --- | --- | --- |
| CC(C)C[C@@H](C=O)NC(=O)[C@H](CC(C)C)NC(=O)[C@H](CC(C)C)NC(=O)OCc1ccccc1 [MG132] (Cbz-Leu-Leu-Leu-aldehyde) | increased the amounts of PHF20 protein | caused cell death | no iPSC colony formation was observed | – |
| WQFNLLTHV (PHFP 2) | – | – | – | capable of recognizing |
